# Where two headings read alike, the source gives them in different places.
# What was measured:
# [1] = PAMPA
# Experimental: (§2) To investigate the impact of TG and lipid digestion products (FFA, MG) on the passive permeation of abiraterone, transport experiments were performed in the AMI-system according to Berben et al. [13]. In short, a regenerated cellulose membrane (molecular weight cut-off 2 kDa) was mounted between two plastic rings resulting in a surface area of 4.91 cm^2. Membrane integrity was checked by water leakage. The AMI-system was placed in a six-well plate on a shaking incubator at 37 °C and 300 rpm. A 1:3 ratio was maintained between donor and acceptor volumes by applying 2 mL of TPGS-solution to the acceptor compartment and 665 µL of the donor solution of abiraterone in the media prepared as described above. The initial concentration of abiraterone depended on the medium to ensure donor concentrations below the solubility and sufficient permeation to quantify the permeated amount in the acceptor compartment: 10 μM in FaSSIF, 30 μM in FeSSIF*, FeSSIF*-Th and FeSSIF*-E, and 150 μM in FeSSIF*-FM, FeSSIF*-FMT and FeSSIF*-FMTh. Samples (100 µL) were taken from the acceptor compartment at 15, 30, 45, 60 and 120 min and diluted 1:1 in MeOH:H2O (50:50 v/v) containing IS. Subsequently, the withdrawn volumes were replaced by fresh TPGS-solution.
# (§3) The apparent permeability coefficient (Papp) was calculated from the cumulative amount of abiraterone appearing in the acceptor compartment according to Equation (1):(1) Papp=dQ/dt×1/A×Cdonor where dQ/dt is the amount of abiraterone appearing in the acceptor compartment over time, A represents the effective surface area available for transport, and Cdonor is the initial concentration in the donor compartment. Data are represented as mean ± standard deviation (SD).
# porcine pancreatin = assay: Enzymatic conversion of abiraterone acetate to abiraterone by porcine pancreatin; type: in vitro ADME; details: porcine pancreatin 0.83 mg/mL (same with esterases), 150 μM
# Experimental: (§1) The conversion of abiraterone acetate to abiraterone was studied in the abovementioned media using either 80 IU/mL esterase from porcine liver or 0.83 mg/mL porcine pancreatin. A total of 150 µM abiraterone acetate (DMSO stock solution) was added to 2 mL of the media in a 12-well plate and placed in a prewarmed shaking incubator (37 °C, 300 rpm; Thermostar, BMG Labtech, Offenburg, Germany). Samples were obtained in triplicate at predetermined time points and centrifuged immediately (20.817 g, 5 min). When lipids were present, drug concentrations were determined in both total (lipid + micellar) and micellar layer as described above.
# [2] = cited from earlier work
# [3] = design: method as in PMID 25592324; details: FaSSIF, pH 6.5; cited from earlier work
# physchem = details: 37 °C, Apparent solubility, micellar
# Experimental: (§4) The apparent solubility (i.e., including both molecules freely dissolved in the aqueous phase and molecules solubilised in colloidal structures and lipid droplets [12]) of abiraterone and abiraterone acetate was determined in the different simulated fed state media (i.e., FeSSIF*, FeSSIF*-FM, FeSSIF*-FMT, FeSSIF*-FMTh, FeSSIF*-Th and FeSSIF*-E) using the shake flask method. Approximately 0.3 mg of compound was added to microcentrifuge tubes containing 0.3 mL of the abovementioned media and placed in a prewarmed shaking incubator (37 °C, 175 rpm; KS 4000 I control incubator from Ika (Staufen, Germany)) for 24 h. To the media containing lipid digestion products, 0.9 mg of compound was added instead of 0.3 mg. All solubility experiments were performed in triplicate. Afterwards, samples were centrifuged to separate the solid phase from the dissolved part (20.817 g, 30 min at 37 °C). […] To determine the solubility in the micellar layer, the top lipid layer was aspirated upon which the supernatant was diluted in MeOH:H2O (50:50 v/v) containing IS (abiraterone-d4 and abiraterone acetate-d4, final concentration 50 nM). To determine the solubility in the total sample, the entire supernatant was transferred into a new microcentrifuge tube and vortexed upon which the supernatant was diluted in MeOH:H2O (50:50 v/v) containing IS to fit the linear range.
# [4] = 1000 mg a day; cited from earlier work
# [5] = tested on: esterase from porcine liver; assay: Enzymatic conversion of abiraterone acetate to abiraterone by porcine esterases; type: in vitro ADME; details: 80 IU/mL porcine esterases
# Experimental: as §1
# [6] = 24 h, pH 6.5
# Experimental: as §4
# [7] = Apparent solubility, shake flask method in simulated intestinal media; details: 37 °C, pH 6.5, 37 °C, mean ± SD (n = 3)
# Experimental: as §4
# small intestine (ileum) = assay: Rat in situ intestinal perfusion with mesenteric blood sampling
# [8] = Passive permeation in the artificial membrane insert system (AMI-system)
# Experimental: as §2, §3
# [9] = FeSSIF*-FM, FeSSIF*-FMT and FeSSIF*-FMTh
# [10] = abiraterone acetate suspension 0.5 mg/mL, 80 IU/mL esterases
structure (smiles),measurement,setting,value
CC(=O)O[C@H]1CC[C@@]2(C)C(=CC[C@@H]3[C@@H]2CC[C@]2(C)C(c4cccnc4)=CC[C@@H]32)C1 [abiraterone acetate],Permeation across the cellulose membrane,[1],too low
same,Degradation in FeSSIF* compared to FeSSIF*-E,porcine pancreatin,degraded faster
same,Log P,[2],5.12
same,"Apparent solubility, micellar",[3],64.6 (±5.2) ^1 µM
same,solubility at 24 h,"physchem; pH 6.5, fessif, thermodynamic from solid",148 µM
same,solubility at 24 h,"physchem; pH 6.5, thermodynamic from solid",2110 µM
same,Excretion of the oral dose,[4],largely excreted in the faeces
same,Time to almost full conversion to abiraterone,"[5]; FaSSIF and FeSSIF*, 150 µM, 37 °C",≤ 30 min
same,Conversion in media containing lipid degradation products,[5]; [9],very limited
same,Degradation in media with undigested TG,[5]; FeSSIF*-Th and FeSSIF*-E,slower degradation
same,Increase of concentration in the total sample in FeSSIF*-FMTh compared to FeSSIF*-FMT,[6],2 fold
same,Increase of solubility in FeSSIF*-FM compared to FeSSIF*,[6],14 fold
C[C@]12CC[C@H](O)CC1=CC[C@@H]1[C@@H]2CC[C@]2(C)C(c3cccnc3)=CC[C@@H]12 [abiraterone],solubility at 24 h,"[7]; FeSSIF*, micellar, pH 6.5, fessif, thermodynamic from solid",32.7 µM
same,solubility at 24 h,"[7]; FeSSIF*-E, micellar layer of the supernatant, pH 6.5, thermodynamic from solid, micellar layer",22 µM
same,solubility at 24 h,"[7]; FeSSIF*-E, total sample (micellar + lipid layer), pH 6.5, thermodynamic from solid, total sample (micellar + lipid layer), FeSSIF*-E",39 µM
same,solubility at 24 h,"[7]; FeSSIF*-FM, micellar, pH 6.5, thermodynamic from solid",176 µM
same,solubility at 24 h,"[7]; FeSSIF*-FMT, micellar layer of the supernatant, pH 6.5, thermodynamic from solid, micellar layer",161 µM
same,solubility at 24 h,"[7]; FeSSIF*-FMT, total sample (micellar + lipid layer), pH 6.5, thermodynamic from solid, total sample (micellar + lipid layer), FeSSIF*-FMT",199 µM
same,solubility at 24 h,"[7]; FeSSIF*-FMTh, micellar layer of the supernatant, pH 6.5, thermodynamic from solid, micellar layer",158 µM
same,solubility at 24 h,"[7]; FeSSIF*-FMTh, total sample (micellar + lipid layer), pH 6.5, thermodynamic from solid, total sample (micellar + lipid layer), FeSSIF*-FMTh",221 µM
same,solubility at 24 h,"[7]; FeSSIF*-Th, micellar layer of the supernatant, pH 6.5, thermodynamic from solid, micellar layer",31 µM
same,solubility at 24 h,"[7]; FeSSIF*-Th, total sample (micellar + lipid layer), pH 6.5, thermodynamic from solid, total sample (micellar + lipid layer), FeSSIF*-Th",50 µM
same,Supersaturation in the perfusate,"small intestine (ileum); FaSSIF and FeSSIF*, entire course of the experiment",apparent supersaturation
same,Supersaturation in the perfusate,"small intestine (ileum); FeSSIF*-FM, FeSSIF*-FMT, FeSSIF*-FMTh",No supersaturation was observed
same,Absorptive flux in media with lipid digestion products,"small intestine (ileum); FeSSIF*-FM, FeSSIF*-FMT, FeSSIF*-FMTh, abiraterone acetate suspension 0.5 mg/mL, 80 IU/mL esterases",comparable to the flux in FaSSIF
same,"Abiraterone AUC0–60min in the perfusate, FeSSIF* compared to FaSSIF",small intestine (ileum); [10],much higher
same,"Abiraterone flux towards the mesenteric vein, FeSSIF* compared to FaSSIF",small intestine (ileum); [10],increased
same,Absorptive flux in FeSSIF*-E and FeSSIF*-Th compared to FaSSIF,small intestine (ileum); [10],increased
same,Absorptive flux in FeSSIF*-Ed compared to FaSSIF and FeSSIF*-FMT,"small intestine (ileum); ongoing lipolysis, pancreatin 0.83 mg/mL, abiraterone acetate suspension 0.5 mg/mL",substantially higher
same,Log P,"[2]; quoted in the discussion of solubility, no reference given",3.97
same,"Apparent solubility, micellar",[3],12.7 (±4.2) ^1 µM
same,Permeability (Papp) in FaSSIF,"[8]; FaSSIF, 10 μM donor, compared to Papp values of 14 compounds of ref 13",low permeability
same,Lowering of permeability in FeSSIF* compared to FaSSIF,[8]; FeSSIF* vs FaSSIF,2.6 fold
same,Change of passive permeability with FFA and MG,[8]; [9],significant decrease
same,Effect of addition of TG to FeSSIF* on Papp,[8]; FeSSIF*-Th and FeSSIF*-E vs FeSSIF*,did not have an effect
same,Increase of solubility in FeSSIF*-FM compared to FeSSIF*,[6],5 fold

# Source: article PMC9143506, “Investigating the Mechanisms behind the Positive Food Effect of Abiraterone Acetate: In Vitro and Rat In Situ Studies” (Pharmaceutics, 2022)
